{
  "source": "paper PMC8384680",
  "about": "(Journal of pharmaceutical and biomedical analysis, 2021)",
  "key": {"[1]": {"assay": "Stability of JQ1 in microdialysate", "assay_type": "physicochemical"}, "[2]": {"assay": "Stability of primary stock solution", "assay_type": "physicochemical", "details": "stored at −80°C for 88-days, R.S.D ≤ 1.16%"}, "BRD4(1)": {"system": "BRD4(1)", "details": "cell-free assays, ref [10], cited from earlier work"}, "BRD4(2)": {"system": "BRD4(2)", "details": "cell-free assays, ref [10], cited from earlier work"}},
  "data": [
    {"smiles": "Cc1sc2c(c1C)C(c1ccc(Cl)cc1)=N[C@@H](CC(=O)OC(C)(C)C)c1nnc(C)n1-2", "note": "[JQ1]", "values": [
      {"measurement": "% Mean deviation", "setting": "[1]; Bench-top 4C: 24h at 4°C, nominal 1.5 ng/mL", "result": 5.96, "unit": "%"},
      {"measurement": "% Mean deviation", "setting": "[1]; Bench-top RT: 24h at room temperature, nominal 1.5 ng/mL", "result": 3.23, "unit": "%"},
      {"measurement": "% Mean deviation", "setting": "[1]; Bench-top RT: 24h at room temperature, nominal 400 ng/mL", "result": 5.26, "unit": "%"},
      {"measurement": "% Mean deviation", "setting": "[1]; Long-term: 21 days at −80°C, nominal 1.5 ng/mL", "result": 12.83, "unit": "%"},
      {"measurement": "% Mean deviation", "setting": "[1]; Long-term: 21 days at −80°C, nominal 400 ng/mL", "result": 5.62, "unit": "%"},
      {"measurement": "% Mean deviation", "setting": "[1]; Process: 48 h in auto sampler at 4°C, nominal 1.5 ng/mL", "result": 0.46, "unit": "%"},
      {"measurement": "% Mean deviation", "setting": "[1]; Process: 48 h in auto sampler at 4°C, nominal 400 ng/mL", "result": 1.39, "unit": "%"},
      {"measurement": "Autosampler (post-extractive) stability (in words)", "setting": "[1]; extracted quality control samples, microdialysate, autosampler 48 h", "result": "stable"},
      {"measurement": "Freeze-thaw stability (in words)", "setting": "[1]; microdialysate, three freeze-thaw cycles", "result": "no-stability related issues"},
      {"measurement": "Short-term stability (in words)", "setting": "[1]; spiked microdialysate, 24 h at 4°C and room temperature", "result": "stable"},
      {"measurement": "Long-term stability (in words)", "setting": "[1]; spiked microdialysate, −80°C for 21 days", "result": "confirmed"},
      {"measurement": "% Mean deviation", "setting": "[1]; three freeze-thaw cycles, nominal 1.5 ng/mL", "result": 11.77, "unit": "%"},
      {"measurement": "Stability of primary stock solution (in words)", "setting": "[2]", "result": "stable"},
      {"measurement": "IC50 BRD4(1)", "setting": "BRD4(1)", "result": 0.0352, "unit": "µg/mL"},
      {"measurement": "IC50", "setting": "BRD4(1); read-out: IC50 BRD4(1)", "result": 77, "unit": "nM"},
      {"measurement": "IC50 BRD4(2)", "setting": "BRD4(2)", "result": 0.0151, "unit": "µg/mL"},
      {"measurement": "IC50", "setting": "BRD4(2); read-out: IC50 BRD4(2)", "result": 33, "unit": "nM"}
    ]}
  ]
}
